Measurements published in patent publication US20250161290A1, “CO-CRYSTALS” (CereSpir Incorporated, priority 2021, published 2025).
In brackets after ≈: the same amount, converted by molar mass. Entries after “also recorded” stand apart in the source; their conditions may differ.

Tests used:
[1] = Dynamic Vapor Sorption (DVS) water sorption/desorption; assay type: physicochemical; details: for Mass Change: 25° C.
Experimental: (§1) Samples are analyzed using a TA Instruments Q5000SA gravimetric water sorption analyzer. The relative humidity (RH) is adjusted in 10% RH increments between 5-95% (±1% RH) at 25° C. (±0.5%° C.). The mass of a sample is continuously monitored and recorded with respect to RH and time with criteria for mass equilibrium set as a percent mass change <0.0100 for 5 minutes with a time limit of 720 minutes per step. The humidity is controlled by mixing dry and wet nitrogen streams with a total flow rate of 200 mL/min. The instrument control and data analysis are operated under Advantage for Q Series and Universal Analysis software, respectively.

[2] = Solubility assessment of CSP-1103 in organic solvents (qualitative); assay type: physicochemical; details: organic solvent or mixture, thermodynamic from solid, qualitative solubility at 0.2 M, gentle heating 45° C. 1 minute if required
Experimental: The solubility assessment of CSP-1103 was then performed. Approximately 0.05 mmol of CSP-1103 was weighed out into a 1-dram vial, enough solvent was added to achieve a 0.2 M concentration, and if required, gentle heating was applied at 45° C. for 1 minute. […] After 12 hours, observations were made to determine if the API had remained in solution.

[3] = Coformer and CSP-1103 aqueous solubility assessment (qualitative); assay type: physicochemical; details: water, thermodynamic from solid, 0.05 M aqueous concentration, gentle heating at 45° C. for 1 minute
Experimental: In a 1-dram vial, enough solvent was added to achieve a 0.05 M aqueous concentration along with some gentle heating at 45° C. for 1 minute to determine if the material would completely dissolve. After 24 hours, observations were made to determine if the material had remained in solution.

[4] = Thermogravimetric analysis (TGA), degradation onset; assay type: physicochemical; details: 10° C. per minute, nitrogen purge
Experimental: TGA data are collected using a TA Instruments Discovery TGA equipped with an autosampler. Typically, 2-5 mg of sample is placed in a pre-tared, Tzero aluminum pan either as a hermetically sealed pan which would be automatically punched open before sample loading for analysis, or as an open pan. A 10° C. per minute ramp rate from ambient temperature to 375° C. using a 25 mL/min nitrogen purge is used. The instrument control and data analysis are operated under TRIOS software.

[5] = XRPD of pre-exposed and post-exposed DVS samples (solid form stability); assay type: physicochemical; details: two DVS sorption/desorption cycles, 5-95% RH, 25° C.
Experimental: X-ray powder diffraction analyses are obtained using a BRUKER D8 ADVANCE equipped with a Cu radiation source operated at 40 kV and 40 mA (λ=1.54 Å after Ni filtering) configured in a Bragg-Brentano geometry, equipped with a 90-position AUTO-CHANGER and a silicon strip detector (SSD160-2). A coupled theta-two theta continuous PSD (Position Sensitive Device) fast scan from 4 to 40 degrees are collected over approximately 32 minutes (0.5 sec/0.01° step). A sample is placed onto a polished zero-background silicon wafer by gently distributing onto the flat surface and is analyzed as a flat plate specimen.
as §1

[6] = Solubility assessment of CSP-1103 in organic solvents (qualitative); assay type: physicochemical; details: organic solvent or mixture, thermodynamic from solid
[7] = test system: patients with mild cognitive impairment (MCI); details: listed as itanapraced, cited from earlier work
[8] = test system: rats after TBI; details: cited from earlier work
[9] = in vivo, cited from earlier work
[10] = physchem
[11] = Consolidated qualitative solubility results (Tables 6 and 8); details: for consolidated solubility result: Table 6; for qualitative solvent solubility overlaid with cocrystallization screens' results: Table 8, numbers are molar concentrations pending investigation
[12] = Phase 2, MCI patients, CSF / brain

SMILES: O=C(O)C1(c2ccc(-c3ccc(Cl)c(Cl)c3)c(F)c2)CC1 [CSP-1103, 1-(3′,4′-dichloro-2-fluoro[1,1′-biphenyl]-4-yl)-cyclopropanecarboxylic acid]
- Mass Change ([1]; Cycle 1 of 2, Adsorption, RH 5 to 95%): 1.10%
- Mass Change ([1]; Cycle 1 of 2, Desorption, RH 95 to 5%): −1.11%
- Mass Change ([1]; Cycle 2 of 2, Adsorption, RH 5 to 95%): 1.13%
- Mass Change ([1]; Cycle 2 of 2, Desorption, RH 95 to 5%): −1.13%
- hygroscopicity classification ([1]; at 95% RH, Ph. Eur. 9.0 (slightly: <2% and ≥0.2%; non: <0.2%)): slightly hygroscopic
- average water sorbed or desorbed ([1]; between 5-95% RH): 1.1±0.0%
- solubility ([2]; MTBE): < 200 mM
- solubility ([2]; acetone): < 200 mM
- solubility ([2]; acetonitrile): < 200 mM
- solubility ([2]; ethanol): < 200 mM
- solubility [3]: < 50 mM
- degradation start by TGA [4]: > 200 °C
- solid form change after DVS exposure (XRPD pre- vs post-exposed) [5]: no solid form change
- solid form change after DVS exposure (XRPD pre- vs post-exposed) ([5]; listed as CSP): no solid state form changes
- solubility ([6]; MTBE, qualitative solubility at 0.1 M, gentle heating if required): > 100 mM
- solubility ([6]; acetone, qualitative solubility at 0.05 M, gentle heating if required): > 50 mM
- solubility ([6]; acetone, qualitative solubility at 0.1 M, gentle heating if required): < 100 mM
- solubility ([6]; acetonitrile, qualitative solubility at 0.05 M, gentle heating if required): < 50 mM
- solubility ([6]; acetonitrile, qualitative solubility at 0.1 M, gentle heating if required): < 100 mM
- solubility ([6]; ethanol, qualitative solubility at 0.05 M, gentle heating if required): > 50 mM
- solubility ([6]; ethanol, qualitative solubility at 0.1 M, gentle heating if required): < 100 mM
- solubility ([6]; ethyl acetate, qualitative solubility at 0.1 M, gentle heating if required): > 100 mM
- solubility ([6]; ethyl acetate, qualitative solubility at 0.2 M, gentle heating 45° C. 1 minute if required): < 200 mM
- solubility ([6]; methanol, qualitative solubility at 0.05 M, gentle heating if required): > 50 mM
- solubility ([6]; methanol, qualitative solubility at 0.1 M, gentle heating if required): < 100 mM
- solubility ([6]; methanol, qualitative solubility at 0.2 M, gentle heating 45° C. 1 minute if required): < 200 mM
- safety and tolerability ([7]; Phase 2, MCI patients treated up to two years): good safety and tolerability; also recorded: well tolerated
- TNF-α (neuroinflammatory mediator) [7, 12]: beneficial dose-related CSF differences; also recorded: dose-related statistically significant reductions
- soluble CD40 ligand (neuroinflammatory mediator) [7, 12]: beneficial dose-related CSF differences; also recorded: dose-related statistically significant reductions
- total tau (marker of neurodegeneration) [7, 12]: beneficial dose-related CSF differences; also recorded: dose-related statistically significant reductions
- cognitive function ([7]; throughout the duration of the trial): stable cognition; also recorded: stable cognitive function
- accumulation of hypertrophic microglia in the injured brain [8]: prevented the accumulation of hypertrophic microglia
- acute lung injury [8]: attenuated
- neurological injury [8]: attenuated
- oral bioavailability ([9]; po): good oral bioavailability
- penetration into the brain [9]: substantial penetration into the brain
- plasma half-life [9]: long plasma half-life
- solubility ([10]; MTBE, organic solvent or mixture): 100 mM (≈ 32.5 mg/mL)
- solubility ([10]; acetonitrile, organic solvent or mixture): < 50 mM
- solubility ([10]; ethyl acetate, organic solvent or mixture): 100 mM (≈ 32.5 mg/mL)
- solubility ([10]; water): < 50 mM
- consolidated solubility result ([11]; MTBE): ✓
- qualitative solvent solubility overlaid with cocrystallization screens' results ([11]; acetone (BP 56° C.)): 50 mM
- consolidated solubility result ([11]; acetone): ✓
- qualitative solvent solubility overlaid with cocrystallization screens' results ([11]; ethanol (BP 79° C.)): 50 mM
- consolidated solubility result ([11]; ethanol): ✓
- consolidated solubility result ([11]; ethyl acetate): ✓
- qualitative solvent solubility overlaid with cocrystallization screens' results ([11]; methanol (BP 65° C.)): 50 mM
- consolidated solubility result ([11]; methanol): ✓
